This is an account of results in patent US20130029955A1, “INHIBITORS OF GALECTIN-3 AND METHODS OF USE THEREOF” (priority 2011, published 2013).

The assay relates to TGR(mREN2)27 rats. Description: Rat model of heart failure treated with a galectin-3 inhibitor. The format is in vivo. As for the experimental part: In this study, N-acetyllactosamine (Gal3i) or an angiotensin-converting enzyme inhibitor (ACEi) was administered to TGR(mREN2)27 rats. Untreated TGR(mREN2)27 (REN2) and Sprague-Dawley (SD) rats were used as controls. TGR(mREN2)27 rats overexpress Ren-2, which leads to development of severe hypertension and ultimately heart failure. Fractional shortening, left ventricular end diastolic pressure (LVEDP), fibrosis, and survival were evaluated as a function of time.

For the compound `CC(=O)N[C@H]1C(O)O[C@H](CO)[C@@H](O[C@@H]2O[C@H](CO)[C@H](O)[C@H](O)[C@H]2O)[C@@H]1O` (some centres unmarked) [Gal3i, N-acetyllactosamine], the fractional shortening entry (FIG. 3A, TGR(mREN2)27 rats, relative to placebo-treated REN2 control) was “prevented a significant loss”. Besides, the “rate of decrease in fractional shortening compared with SD control group” value (FIG. 3B, SD control group did not develop heart failure) is “comparable to that of the SD control group”. Moreover, the “reduction in fractional shortening from beginning of the study to sacrifice” value (FIG. 3B, relative to placebo-treated REN2 control) was “significantly slowed the reduction in fractional shortening”. The “left ventricular end diastolic pressure (LVEDP)” value (FIG. 3C, relative to placebo-treated REN2 control) is on record as “significantly improved the LVEDP”. Further, the “Tau compared with SD control group” value (FIG. 3D) is given as “comparable to that of the SD control group”. The “left ventricle pressure decay (Tau)” value (FIG. 3D, relative to placebo-treated REN2 control) is “significantly improved the Tau”. In addition, the cardiac fibrosis entry (FIG. 4A/4B, cardiac tissue sections, compared to placebo-treated REN2 control group) was “significantly inhibited fibrosis”. In addition, for the setting “FIG. 5, after 40 days, placebo-treated REN2 rats about 65%”, the “survival (rats remaining, Kaplan-Meier)” value is recorded as “approximately 80%”.
